Laboratory results taken from US7833985B2, “Angiotensin-converting enzyme inhibitory peptides” (Suntory Holdings Limited, priority 2003, dated 2010).

Molecular target: T1, ACE from rabbit lung (Oryctolagus cuniculus, UniProt P12822)
T1 construct: ACE from rabbit lung (Sigma); purchased Sigma; host or cells: rabbit lung
T1 sequence (P12822 34-1310): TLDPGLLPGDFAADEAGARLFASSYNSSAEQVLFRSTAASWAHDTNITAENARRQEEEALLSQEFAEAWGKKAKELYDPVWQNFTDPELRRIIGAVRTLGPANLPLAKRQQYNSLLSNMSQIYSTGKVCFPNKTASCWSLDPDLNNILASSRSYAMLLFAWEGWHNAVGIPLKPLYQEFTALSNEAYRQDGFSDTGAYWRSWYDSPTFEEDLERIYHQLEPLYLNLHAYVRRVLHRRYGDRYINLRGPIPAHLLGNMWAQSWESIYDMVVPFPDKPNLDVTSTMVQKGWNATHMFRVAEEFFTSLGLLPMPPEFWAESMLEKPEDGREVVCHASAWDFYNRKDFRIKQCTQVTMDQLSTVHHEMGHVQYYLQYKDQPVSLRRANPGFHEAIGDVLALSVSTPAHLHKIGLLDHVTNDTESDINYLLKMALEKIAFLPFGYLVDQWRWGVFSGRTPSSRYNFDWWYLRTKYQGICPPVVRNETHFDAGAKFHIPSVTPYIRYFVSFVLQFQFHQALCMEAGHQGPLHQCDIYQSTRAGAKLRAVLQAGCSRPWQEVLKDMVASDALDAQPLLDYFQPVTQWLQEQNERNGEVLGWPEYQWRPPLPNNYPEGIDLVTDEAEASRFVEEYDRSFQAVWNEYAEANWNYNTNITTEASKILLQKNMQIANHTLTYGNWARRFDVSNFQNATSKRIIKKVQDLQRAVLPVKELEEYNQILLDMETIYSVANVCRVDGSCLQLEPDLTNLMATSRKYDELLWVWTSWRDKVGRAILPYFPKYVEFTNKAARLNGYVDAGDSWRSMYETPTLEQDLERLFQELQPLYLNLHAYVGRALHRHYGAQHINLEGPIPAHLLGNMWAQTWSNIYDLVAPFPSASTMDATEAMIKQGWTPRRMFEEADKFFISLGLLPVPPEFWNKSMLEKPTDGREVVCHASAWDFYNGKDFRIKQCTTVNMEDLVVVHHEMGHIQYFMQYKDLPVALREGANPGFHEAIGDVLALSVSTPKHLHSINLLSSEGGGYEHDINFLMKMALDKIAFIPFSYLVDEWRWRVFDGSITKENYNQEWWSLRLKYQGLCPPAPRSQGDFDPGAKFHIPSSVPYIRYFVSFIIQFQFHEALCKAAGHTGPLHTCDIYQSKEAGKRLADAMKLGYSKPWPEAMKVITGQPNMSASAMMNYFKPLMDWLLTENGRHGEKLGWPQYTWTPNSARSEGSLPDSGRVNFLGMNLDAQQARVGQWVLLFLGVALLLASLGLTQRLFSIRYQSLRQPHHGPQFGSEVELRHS
Test: ACE inhibitory activity (IC50), fluorometric Bz-Gly-His-Leu hydrolysis
Assay type: biochemical
Details: peptide purified from thermolysin digestion product of sesame protein; 5 μl portion of each fraction
Procedure: In the present invention, the ACE inhibitory activity (IC50) was measured in accordance with the following method.
5 μl of a sample containing the peptide of the invention was pipetted into a 96-well microplate. After adding 25 μl of the buffer and 10 μl of the enzyme, the mixture was thoroughly stirred and incubated at 37° C. for 5 minutes. After adding 10 μl of the substrate, the mixture was reacted at 37° C. for 30 minutes. Then the reaction was ceased by adding 40 μl of 0.1 N NaOH. […] Then the amount of His-Leu formed by the hydrolysis by ACE was determined by exciting (at 355 nm) the fluorescent substance formed by the reaction between the amino group in the histidine residue and o-phthalaldehyde and measuring the fluorescence wavelength at 460 nm. Then the percentage inhibition by the peptide of the invention was determined in accordance with the following equation and the ACE inhibitory activity (IC50) was calculated. Percentage inhibition={1−(A−a)/(B−b)}×100 • A: Measurement of fluorescence when the sample was added. • a: Measurement of fluorescence when the sample was added and the buffer was added as a substitute for the enzyme. • B: Measurement of fluorescence when distilled water was added as a substitute for the sample. • b: Measurement of fluorescence when distilled water was added as a substitute for the sample and the buffer was added as a substitute for the enzyme.

ACE inhibitory activity of the C30 HPLC fractions identified as the peptide: strong ACE inhibitory activities
Substance: Ile-Val-Tyr
